Tests used:
[1] = system: Listeria monocytogenes ATCC 19115; assay: MIC determination; type: cell-based; conditions: Listeria monocytogenes ATCC 19115; 18 h
Procedure: (§1) The antibacterial activity of tested samples was assessed against both gram-positive bacteria (Staphylococcus aureus ATCC 25923, Staphylococcus aureus ATCC 6538, Staphylococcus epidermidis ATCC 12228, Enterococcus faecalis ATCC 29212, Listeria monocytogenes ATCC 19115, Bacillus subtilis ATCC 6633, Bacillus cereus ATCC 10876) and gram-negative bacteria (Escherichia coli ATCC 10530, Salmonella typhimurium ATCC 14028). Antibacterial properties were evaluated using both the dilution method (employing DMSO and 96-well plates) and the diffusion-well method (using Mueller Hinton Agar, Merck, Germany).
The minimum inhibitory concentrations (MICs) of the tested samples were evaluated against a panel of reference microorganisms obtained from the American Type Culture Collection (ATCC), including Gram-negative bacteria (Escherichia coli ATCC 10530, Salmonella typhimurium ATCC 14028), and Gram-positive bacteria (Staphylococcus aureus ATCC 25923, Staphylococcus aureus ATCC 6538, Staphylococcus epidermidis ATCC 12228, Enterococcus faecalis ATCC 29212, Listeria monocytogenes ATCC 19115, Bacillus subtilis ATCC 6633), and one strain (Bacillus cereus ŁOCK 0807) obtained from the Pure Culture of Industrial Microorganisms of the Institute of Fermentation Technology and Microbiology ŁOCK 105 (Łódź, Poland).
The microorganism cultures with a density of 1.5 × 10^8 CFU mL^−1 (corresponding to a McFarland standard of 0.5) were plated on Mueller–Hinton Agar (Merck, Germany) following the procedures recommended by the European Committee on Antimicrobial Susceptibility Testing (EUCAST).[47] Wells measuring 10 mm in diameter were cut into the medium. The tested compounds were dissolved in a DMSO solution, which was recommended due to their chemical structures. Subsequently, 100 μL of prepared solutions containing the tested compounds at concentrations ranging from x μg mL^−1 to x μg mL^−1 were added to each well. The plates were incubated at 30 °C (for Bacillus subtilis and Bacillus cereus) or 37 °C (for other bacteria) for 18 hours. After incubation, the minimum inhibitory concentration (MIC value) was determined (the lowest concentration of the tested compounds that prevents bacterial growth) and expressed in μg mL^−1. The experiment was conducted in three independent replicates. Ciprofloxacin (Sigma Aldrich, Saint Louis, MO, USA) was used as a reference antimicrobial agent against Gram-negative bacteria, while vancomycin (Sigma Aldrich, Saint Louis, MO, USA) was used as a reference antimicrobial agent against Gram-positive bacteria.

[2] = system: E. faecalis ATCC 29212; assay: Diffusion-well method, inhibition zones; type: cell-based, Enterococcus faecalis; conditions: 500 µg/mL, wells 10 mm
Procedure: as §1
(§2) 24 hour bacterial cultures with a density of 1–2 × 10^8 CFU mL^−1 were plated (0.1 mL) on Mueller–Hinton Agar (Merck, Germany). Subsequently, wells with a diameter of 10 mm were cut out from and filled with 100 μL of the tested compound at a concentration of 10–500 μg mL^−1 (diluted in DMSO). After an 18-hour incubation at either 30 °C (for Bacillus ssp.) or 37 °C (for other tested microorganisms), the inhibition zones around the wells were measured, and the results were expressed in millimetres (Table S9 ^†).

[3] = system: S. Typhimurium ATCC 14028; assay: Diffusion-well method, inhibition zones; type: cell-based, Salmonella typhimurium; conditions: 500 µg/mL, wells 10 mm
Procedure: as §1, §2

[4] = system: glioblastoma LN-229 cells; assay: MTT cell viability assay; type: cell-based, human; conditions: 48 hours of incubation
Procedure: (§3) The glioblastoma cell lines LN-229 and U87 and the reference human normal skin fibroblast BJ were obtained from the American Type Culture Collection (ATCC). Cells were grown as monolayers when cultured in cell culture flasks and cultured in Dulbecco's Modified Eagle Medium (DMEM) – LN-229 and Eagle's Minimum Essential Medium (EMEM) – U87 and BJ, supplemented with 10% (v/v) fetal bovine serum, penicillin (10 000 U mL^−1), streptomycin (10 mg mL^−1) and amphotericin B (250 μg mL^−1). The cells were incubated at 37 °C, 5% CO2 atmosphere. The cells were maintained in the logarithmic growth phase by regular passage at 80% confluence.
(§4) The cytotoxicity of the tested compounds was evaluated against both human glioblastoma LN-229 and U-87 as well as normal BJ cell lines. The cells were plated in 96-well culture plates (2 × 10^4 well) and after 24 h incubation the cells were treated with the tested compounds in the concentration range 1–50 μM. The cells were cultured for the next 48 h. The cytotoxicity of the compounds was evaluated using the MTT colorimetric method as previously described.[28,29] IC50 values were determined using the AAT Bioquest IC50 calculator as the concentration of compounds capable of reducing cell viability by 50%. The experiment was performed in triplicate for each concentration. To examine the cytotoxic effect of compounds on cell morphology, cells were examined under an inverted phase contrast microscope Nikon Eclipse Ti with NIS Element software (Tokyo, Japan).

[5] = system: normal skin fibroblast BJ cells; assay: MTT cell viability assay; type: cell-based, human; conditions: BJ normal fibroblasts; 48 hours of incubation
Procedure: as §3, §4

[6] = system: glioblastoma U87 cells; assay: MTT cell viability assay; type: cell-based, human; conditions: 48 hours of incubation
Procedure: as §3, §4

[7] = system: B. subtilis ATCC 6633; assay: Diffusion-well method, inhibition zones; type: cell-based, Bacillus subtilis; conditions: 500 µg/mL, wells 10 mm
Procedure: as §1, §2

[8] = Time-dependent UV-vis solution stability in DMSO; type: physicochemical; conditions: 0 min to 48 h, room temperature
From the text: The stability of metal complexes is a crucial property that provides insight into their interactions with biological molecules, as it directly impacts their reactivity, bioavailability, and effectiveness in therapeutic applications. Additionally, the solubility of these complexes in dimethyl sulfoxide (DMSO) is of considerable importance, as solubility data are essential for optimizing storage conditions and ensuring compatibility with biological assays.[39] DMSO, a widely used solvent in drug discovery, serves as a medium that supports the stability and bioavailability of complexes under assay conditions, which is critical for maintaining the integrity of analytical protocols and enabling accurate assessments of biological activity. For the obtained complexes, the time-dependent UV-vis investigations in DMSO (Fig. 5 and S9 ^†) were carried out from 0 min to 48 h (0 min, 30 min, 1 h, 2 h, 3 h, 24 h, 48 h).
The sample solutions (50 μL (1.0 × 10^−3 M)) of the complexes were prepared in DMSO (Sigma Aldrich, ≥99.9%). The absorption spectra of the complexes were measured with increasing time (0 min, 30 min, 60 min, 2 h, 3 h, 24 h, 48 h) at room temperature. All measurements were performed on the Shimadzu UV-2401PC.

[9] = system: L. monocytogenes ATCC 19115; assay: Diffusion-well method, inhibition zones; type: cell-based, Listeria monocytogenes; conditions: 500 µg/mL, wells 10 mm
Procedure: as §1, §2

[10] = system: S. aureus ATCC 25923; assay: Diffusion-well method, inhibition zones; type: cell-based, Staphylococcus aureus; conditions: 500 µg/mL, wells 10 mm
Procedure: as §1, §2

[11] = system: S. aureus ATCC 6538; assay: Diffusion-well method, inhibition zones; type: cell-based, Staphylococcus aureus; conditions: 500 µg/mL, wells 10 mm
Procedure: as §1, §2

With `NC(=NN=Cc1ccccc1)c1cncc(Cl)n1.O.O=[N+]([O-])[O-].[Ag+]` [Complex 1, AgL1NO3 × H2O] as the compound, how does the MIC [1] read?
The MIC was under 10 µg/mL.

And the Inhibition zone [2]?
Its Inhibition zone is 17 mm.

What about the Inhibition zone [3] of the same compound?
The Inhibition zone was 17 mm.

What about the IC50 [4] of the same compound?
The IC50 was 25.2 ± 3.75 µM.

What about the IC50 [5] of the same compound?
The IC50 was 20.5 ± 5.21 µM.

What about the IC50 [6] of the same compound?
Its IC50 is 8.15 ± 2.67 µM.

And the Inhibition zone [7]?
Its Inhibition zone is 17 mm.

And the hypochromic effect [8]?
Its hypochromic effect is 0.84%.

And the Inhibition zone [9]?
The Inhibition zone was 19 mm.

What about the Inhibition zone [10] of the same compound?
The Inhibition zone was 20 mm.

What about the Inhibition zone [11] of the same compound?
The Inhibition zone was 16 mm.

— PMC12150283, “Synthesis of new Ag(I) and Cd(II) hydrozanomide-based complexes with antibacterial and anticancer properties” (RSC Advances, 2025)
